# Results taken from ChEMBL document CHEMBL1201862, “PubChem BioAssay data set” (2004).
# Activity calls are given as the source filed them.
# Assays:
# [1] = inhibitors of intracellular T. cruzi replication, confirmation, NIH3T3 host cells, beta-gal luminescence (AID 2044); type: functional, cell-based;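 further: intracellular parasites grown in NIH/3T3 mouse fibroblasts as host cells; luminescent beta-galactosidase reporter signal from transgenic T. cruzi replicating inside host cells; inhibitors lower the luminescence signal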
# [2] = cytotoxicity toward NIH3T3 fibroblasts, dose response, counter-screen, cell-based, ATP luminescence, mouse fibroblasts (AID 2010); type: functional;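 further: cells exposed to compound for about 90 hours before reading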
# [3] = M. tuberculosis H37Rv growth inhibitors, H37Rv strain (AID 1626); type: functional
# Trypsin = Trypsin (Sus scrofa, UniProt P00761); experiment: porcine trypsin inhibitors, dose response, selectivity assay for Rce1 protease inhibitor project, biochemical, quenched peptide fluorescence, cherry-pick (AID 488789)
# CAAX prenyl protease 2 = target: T1, CAAX prenyl protease 2 (Saccharomyces cerevisiae S288c, UniProt Q03530); type: biochemical
# T1 sequence (Q03530 whole entry): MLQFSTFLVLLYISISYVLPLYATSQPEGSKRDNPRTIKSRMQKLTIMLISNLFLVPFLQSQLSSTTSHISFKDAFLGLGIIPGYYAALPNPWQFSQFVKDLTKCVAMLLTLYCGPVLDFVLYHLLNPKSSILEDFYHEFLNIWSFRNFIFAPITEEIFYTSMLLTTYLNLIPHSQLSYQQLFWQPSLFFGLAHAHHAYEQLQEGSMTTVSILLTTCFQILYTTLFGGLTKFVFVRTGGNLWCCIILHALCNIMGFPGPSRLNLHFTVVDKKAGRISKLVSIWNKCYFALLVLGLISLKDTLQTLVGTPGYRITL
# Estrogen receptor = target: T2, Estrogen receptor (Homo sapiens, UniProt P03372);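 further: potency for inhibiting coactivator peptide recruitment to the receptor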
# T2 sequence (P03372 whole entry): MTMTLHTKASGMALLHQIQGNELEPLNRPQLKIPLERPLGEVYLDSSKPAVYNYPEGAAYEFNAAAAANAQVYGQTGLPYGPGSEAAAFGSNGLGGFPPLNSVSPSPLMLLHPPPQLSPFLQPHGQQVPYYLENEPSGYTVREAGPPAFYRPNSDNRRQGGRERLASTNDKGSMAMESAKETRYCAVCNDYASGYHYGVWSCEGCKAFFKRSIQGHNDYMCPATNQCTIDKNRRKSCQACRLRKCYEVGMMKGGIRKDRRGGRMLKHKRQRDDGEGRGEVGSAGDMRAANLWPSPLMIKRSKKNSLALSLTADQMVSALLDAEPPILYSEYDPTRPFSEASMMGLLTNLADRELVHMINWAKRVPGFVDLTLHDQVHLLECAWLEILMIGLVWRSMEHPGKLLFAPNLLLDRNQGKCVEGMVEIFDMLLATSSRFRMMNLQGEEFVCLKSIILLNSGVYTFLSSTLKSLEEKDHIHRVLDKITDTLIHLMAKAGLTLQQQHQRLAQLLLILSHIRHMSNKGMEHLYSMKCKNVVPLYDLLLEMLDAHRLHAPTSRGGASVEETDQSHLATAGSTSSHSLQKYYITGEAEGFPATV
# [4] = target: T3, Carboxy-terminal domain RNA polymerase II polypeptide A small phosphatase 1 (Homo sapiens, UniProt Q9GZU7); experiment: inhibitors of CTDSP1, concentration-response testing, biochemical assay, absorbance-based, actives from ultra-high-throughput screening (AID 540297); type: functional
# T3 sequence (Q9GZU7 whole entry): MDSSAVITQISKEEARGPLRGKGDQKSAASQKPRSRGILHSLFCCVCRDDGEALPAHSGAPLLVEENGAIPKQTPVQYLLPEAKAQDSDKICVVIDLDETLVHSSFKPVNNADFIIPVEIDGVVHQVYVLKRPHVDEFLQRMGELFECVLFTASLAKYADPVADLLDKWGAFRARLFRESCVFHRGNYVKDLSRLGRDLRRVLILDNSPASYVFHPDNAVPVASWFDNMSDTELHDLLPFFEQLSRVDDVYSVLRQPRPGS
# Prothrombin = Prothrombin (Homo sapiens, UniProt P00734); experiment: Thrombin 1536 HTS Dose Response Confirmation. [Related pubchem assays: 1046 (Thrombin 1536 HTS; hits were confirmed in this assay)]; type: functional
# [5] = target: T4, Calpain-2 catalytic subunit (Sus scrofa, UniProt P43367); experiment: pig calpain II inhibitor potency, dose response, biochemical, fluorogenic peptide substrate (AID 1420); type: functional
# T4 sequence (P43367 whole entry): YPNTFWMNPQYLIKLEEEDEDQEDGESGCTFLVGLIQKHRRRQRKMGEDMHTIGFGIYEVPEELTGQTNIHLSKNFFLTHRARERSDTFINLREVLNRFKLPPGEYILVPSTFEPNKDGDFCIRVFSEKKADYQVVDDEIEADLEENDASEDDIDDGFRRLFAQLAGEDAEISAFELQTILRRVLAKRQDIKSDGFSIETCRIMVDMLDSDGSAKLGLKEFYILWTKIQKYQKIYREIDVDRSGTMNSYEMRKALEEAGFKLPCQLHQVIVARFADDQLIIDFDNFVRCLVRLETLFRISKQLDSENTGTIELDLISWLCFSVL
# Large T antigen = Large T antigen (Simian virus 40, UniProt P03070); type: functional, Betapolyomavirus macacae;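 further: Confirmatory-stage PubChem screen for compounds that inhibit SV40 T antigen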
# [6] = target: T5, Replicative DNA helicase DnaB (Mycobacterium tuberculosis, UniProt P9WMR3); experiment: DnaB intein splicing inhibitors, dose response, biochemical, cell-free fluorescence (AID 449749); type: functional
# T5 sequence (P9WMR3 whole entry): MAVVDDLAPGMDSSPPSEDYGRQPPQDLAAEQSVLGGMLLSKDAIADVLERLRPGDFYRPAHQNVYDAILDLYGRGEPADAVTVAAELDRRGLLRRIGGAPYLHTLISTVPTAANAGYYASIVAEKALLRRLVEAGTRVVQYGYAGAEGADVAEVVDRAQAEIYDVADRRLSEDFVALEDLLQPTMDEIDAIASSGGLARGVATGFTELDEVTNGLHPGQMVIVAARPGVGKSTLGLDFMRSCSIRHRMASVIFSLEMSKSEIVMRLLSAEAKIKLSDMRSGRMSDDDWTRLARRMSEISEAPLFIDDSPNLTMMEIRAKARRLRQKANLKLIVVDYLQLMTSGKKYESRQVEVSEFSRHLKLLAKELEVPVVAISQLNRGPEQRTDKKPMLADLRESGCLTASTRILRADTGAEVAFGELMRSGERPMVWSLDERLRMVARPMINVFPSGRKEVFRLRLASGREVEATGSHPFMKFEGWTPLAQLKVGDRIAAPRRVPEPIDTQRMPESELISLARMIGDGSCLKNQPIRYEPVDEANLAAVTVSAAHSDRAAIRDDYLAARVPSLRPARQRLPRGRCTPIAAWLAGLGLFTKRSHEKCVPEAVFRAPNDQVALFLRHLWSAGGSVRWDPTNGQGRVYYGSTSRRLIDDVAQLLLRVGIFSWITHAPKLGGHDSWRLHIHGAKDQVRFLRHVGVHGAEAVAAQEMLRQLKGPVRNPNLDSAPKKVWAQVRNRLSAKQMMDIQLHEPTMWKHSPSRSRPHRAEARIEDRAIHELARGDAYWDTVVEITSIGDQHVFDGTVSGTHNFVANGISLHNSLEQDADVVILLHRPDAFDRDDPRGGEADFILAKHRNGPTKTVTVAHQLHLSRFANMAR
# Protein RecA = target: T6, Protein RecA (Mycobacterium tuberculosis, UniProt P9WHJ3); experiment: Fluorescence Cell-Free Homogeneous Dose Retest to Identify Inhibitors of RecA-Intein Splicing Activity. [Related pubchem assays (depositor defined):AID2097, AID2223, AID489010, AID492950]; type: functional
# T6 sequence (P9WHJ3 whole entry): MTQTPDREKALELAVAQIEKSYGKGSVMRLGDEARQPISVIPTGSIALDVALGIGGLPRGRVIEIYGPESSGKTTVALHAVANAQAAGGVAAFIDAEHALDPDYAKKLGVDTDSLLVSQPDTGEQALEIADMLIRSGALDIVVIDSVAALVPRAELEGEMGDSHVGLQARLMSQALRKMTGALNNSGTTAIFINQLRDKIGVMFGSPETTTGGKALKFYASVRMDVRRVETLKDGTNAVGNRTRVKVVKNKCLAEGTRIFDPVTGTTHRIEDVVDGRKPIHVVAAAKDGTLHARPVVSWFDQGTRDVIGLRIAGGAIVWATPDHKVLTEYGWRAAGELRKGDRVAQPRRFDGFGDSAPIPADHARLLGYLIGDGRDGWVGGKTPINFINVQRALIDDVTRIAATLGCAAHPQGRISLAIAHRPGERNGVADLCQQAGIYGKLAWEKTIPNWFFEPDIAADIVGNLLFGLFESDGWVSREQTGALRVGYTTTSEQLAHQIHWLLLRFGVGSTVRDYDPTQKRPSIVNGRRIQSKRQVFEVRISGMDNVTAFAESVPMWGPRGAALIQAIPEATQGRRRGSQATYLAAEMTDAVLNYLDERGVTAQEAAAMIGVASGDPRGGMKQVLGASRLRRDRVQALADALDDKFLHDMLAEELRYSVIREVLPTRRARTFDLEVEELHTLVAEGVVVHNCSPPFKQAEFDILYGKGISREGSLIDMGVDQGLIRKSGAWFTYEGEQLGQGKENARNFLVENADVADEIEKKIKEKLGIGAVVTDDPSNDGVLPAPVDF
# Genome polyprotein = Genome polyprotein (dengue virus type 2, UniProt P29990); experiment: Dengue-2 NS5 methyltransferase inhibitors, primary screen, biochemical, confirmation dose response (AID 588689); type: functional
# Caspase-6 = target: T7, Caspase-6 (Homo sapiens, UniProt P55212); experiment: human caspase-6 inhibitors, dose response, biochemical, VEID-R110 fluorescence, cherry-pick (AID 720632)
# T7 sequence (P55212 whole entry): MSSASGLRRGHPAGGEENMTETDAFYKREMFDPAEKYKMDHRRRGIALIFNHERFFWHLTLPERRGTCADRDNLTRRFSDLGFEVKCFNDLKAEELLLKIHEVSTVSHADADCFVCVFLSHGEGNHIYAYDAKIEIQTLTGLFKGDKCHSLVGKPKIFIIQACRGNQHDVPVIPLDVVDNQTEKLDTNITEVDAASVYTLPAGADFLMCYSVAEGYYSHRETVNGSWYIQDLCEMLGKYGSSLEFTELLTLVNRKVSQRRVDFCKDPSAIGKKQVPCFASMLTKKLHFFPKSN
# Chain of Trypsin (P00761 whole entry): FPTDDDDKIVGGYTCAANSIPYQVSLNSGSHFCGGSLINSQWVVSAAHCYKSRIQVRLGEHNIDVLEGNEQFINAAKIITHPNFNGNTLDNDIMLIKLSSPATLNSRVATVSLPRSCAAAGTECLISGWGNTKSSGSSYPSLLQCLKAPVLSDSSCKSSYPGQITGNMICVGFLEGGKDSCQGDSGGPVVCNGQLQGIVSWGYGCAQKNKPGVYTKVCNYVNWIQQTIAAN
# Chain of Genome polyprotein (P29990 2492-3391 limits assumed): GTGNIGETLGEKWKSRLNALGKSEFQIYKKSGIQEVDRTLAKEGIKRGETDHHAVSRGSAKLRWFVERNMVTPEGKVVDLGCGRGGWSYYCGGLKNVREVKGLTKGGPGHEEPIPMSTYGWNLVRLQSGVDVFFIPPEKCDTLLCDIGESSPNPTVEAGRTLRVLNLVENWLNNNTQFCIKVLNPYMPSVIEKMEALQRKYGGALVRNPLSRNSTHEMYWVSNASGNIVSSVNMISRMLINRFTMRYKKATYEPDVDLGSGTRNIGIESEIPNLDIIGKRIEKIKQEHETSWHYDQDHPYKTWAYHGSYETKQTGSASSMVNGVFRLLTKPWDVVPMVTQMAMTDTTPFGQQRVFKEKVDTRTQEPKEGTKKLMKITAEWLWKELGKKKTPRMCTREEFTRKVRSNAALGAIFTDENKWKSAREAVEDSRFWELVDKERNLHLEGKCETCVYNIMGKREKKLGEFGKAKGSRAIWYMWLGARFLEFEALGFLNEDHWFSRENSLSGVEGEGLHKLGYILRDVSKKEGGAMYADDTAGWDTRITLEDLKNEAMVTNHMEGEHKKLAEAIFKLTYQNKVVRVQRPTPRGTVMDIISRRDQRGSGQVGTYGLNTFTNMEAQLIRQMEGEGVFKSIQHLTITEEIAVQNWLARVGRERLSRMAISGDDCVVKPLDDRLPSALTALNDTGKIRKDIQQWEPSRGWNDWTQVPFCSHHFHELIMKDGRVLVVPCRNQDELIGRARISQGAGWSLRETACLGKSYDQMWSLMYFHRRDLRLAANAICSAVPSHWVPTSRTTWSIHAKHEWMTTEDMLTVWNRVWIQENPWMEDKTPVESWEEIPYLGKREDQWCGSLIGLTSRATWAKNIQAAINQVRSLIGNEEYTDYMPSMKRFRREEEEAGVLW
# Chain of Large T antigen (P03070 whole entry): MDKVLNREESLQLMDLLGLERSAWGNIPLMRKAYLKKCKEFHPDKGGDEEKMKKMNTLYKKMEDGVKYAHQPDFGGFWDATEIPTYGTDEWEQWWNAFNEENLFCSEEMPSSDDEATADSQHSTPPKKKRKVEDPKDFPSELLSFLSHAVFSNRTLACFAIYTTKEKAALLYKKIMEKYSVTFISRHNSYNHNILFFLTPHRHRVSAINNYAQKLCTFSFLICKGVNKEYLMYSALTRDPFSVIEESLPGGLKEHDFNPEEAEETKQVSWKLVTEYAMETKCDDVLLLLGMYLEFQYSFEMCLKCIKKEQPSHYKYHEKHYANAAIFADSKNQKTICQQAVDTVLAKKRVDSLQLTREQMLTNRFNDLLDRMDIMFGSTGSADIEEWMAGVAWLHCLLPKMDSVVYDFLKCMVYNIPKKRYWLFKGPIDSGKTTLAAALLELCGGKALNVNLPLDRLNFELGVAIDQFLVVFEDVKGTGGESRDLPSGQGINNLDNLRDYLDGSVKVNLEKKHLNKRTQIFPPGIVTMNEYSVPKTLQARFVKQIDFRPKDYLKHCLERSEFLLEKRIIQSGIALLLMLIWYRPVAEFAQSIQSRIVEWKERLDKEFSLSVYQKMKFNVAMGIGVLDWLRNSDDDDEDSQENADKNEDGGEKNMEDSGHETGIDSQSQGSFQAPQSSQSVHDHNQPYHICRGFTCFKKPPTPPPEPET
structure (smiles),measurement,setting,value
CCOC(=O)c1sc2c(c1C)c(=O)n(Cc1ccccc1)c(=O)n2CCN(C)C,EC50,[1],< 0.1 µM (active)
same,EC50,[2],> 60 µM (not active)
same,EC50,cells,0.062 µM (active)
Cc1cc(O)nc(SCC(=O)C23CC4CC(CC(C4)C2)C3)c1C#N,IC50,[3],> 100 µM (active)
Cc1c(Cc2ccccc2)c(=O)oc2c(C)c(OCC(=O)N3CCC(C(=O)O)CC3)ccc12,AC50,Trypsin,9.51 µM (active)
same,AC50,CAAX prenyl protease 2,10.7 µM (active)
O=C(Nc1ccc2nn(-c3ccccc3)nc2c1)c1ccc(Br)o1,IC50,Estrogen receptor,> 50 µM (not active)
same,IC50,[4],3.62 µM (active)
Cc1c(Cl)cnc(NC(=O)COC(=O)CCC(=O)c2cccs2)c1Cl,IC50,Prothrombin,2.77 µM (active)
O=C(CN1C(=O)C2C3CCC(C3)C2C1=O)Oc1ccc2ccccc2c1 (stereo unspecified),IC50,[3],> 100 µM (active)
COc1ccc(-c2nc(CC(=O)O)cs2)cc1OC,AC50,Trypsin,6.53 µM (active)
same,AC50,CAAX prenyl protease 2,29.7 µM (active)
Cc1nc(-c2cnn(-c3ccccc3)c2)c2cc(C)oc2n1,IC50,Prothrombin,> 50 µM (not active)
CCOc1ccc(NC2C=CS(=O)(=O)C2)cc1 (stereo unspecified),IC50,[3],> 100 µM (active)
C=C(C)COc1ccc(-c2n[nH]cc2Oc2ccccc2OCC)c(O)c1,IC50,[5],11.7 µM (not active)
COc1ccc2sc(N(CCCN(C)C)C(=O)c3ccc(S(=O)(=O)N(C)C4CCCCC4)cc3)nc2c1,EC50,[1],< 0.1 µM (active)
same,EC50,[2],> 60 µM (not active)
same,EC50,cells,0.393 µM (active)
COC(=O)Cc1ccc(NC(=O)c2ccc(Br)o2)cc1,IC50,[3],> 100 µM (active)
CCc1ccc(S(=O)(=O)NCc2cn3c(C)csc3n2)s1,IC50,[5],6.07 µM (not active)
Cc1ccnc(NC(=O)c2ccc([N+](=O)[O-])o2)c1,IC50,Prothrombin,> 50 µM (not active)
O=C(O)c1cc(Nc2cc(Cl)c3nonc3c2[N+](=O)[O-])ccc1O,IC50,Large T antigen,40.4 µM (active)
same,AC50,[6],1.17 µM (active)
same,EC50,Protein RecA,1.33 µM (active)
same,IC50,Genome polyprotein,8.55 µM (active)
same,AC50,Caspase-6,14.6 µM (active)
CCN(CC)c1ccc(CN(C)CCc2ccc(OC)c(OC)c2)cc1,EC50,[1],< 0.1 µM (active)
same,EC50,[2],> 60 µM (not active)
same,EC50,cells,< 0.004 µM (active)
CC(C)(C)C1CCc2c(sc(NC(=O)CSc3nnc(-c4ccccc4)o3)c2C#N)C1 (stereo unspecified),IC50,[3],> 100 µM (active)
CC(C)(C)c1csc(N/N=C/c2cccnc2)n1,IC50,[5],18.6 µM (not active)
